Laboratory results taken from patent US9670197B2, “Small molecule modifiers of the Hec1-Nek2 interaction in G2/M” (The Regents of the University of California, priority 2013, dated 2017).
Where a SMILES comes first, the peptide text is derived from it. The star is where a group is joined. Cbz = O=C(OCc1ccccc1)*

How the values were obtained:
[1] = system: HeLa; test: Cancer cell growth inhibition, HeLa; assay type: cell-based; details: Homo sapiens; Table 1, HeLa; read-out: HeLa IC50
Experimental: Cell lines and establishment of stable cell lines. Human breast cancer cell lines MDA-MB-231 and MDA-MB-468, osteosarcoma line U20S, cervical adenocarcinoma line HeLa, and normal skin fibroblast Hs27 were maintained in DMEM medium (Invitrogen, Grand Island, N.Y.) supplemented 10% fetal bovine serum (FBS) and 1% penicillin-streptomycin. The leukemia cell line K562 and glioblastoma cell line T98G were grown in RPMI 1640 supplemented 10% FBS and 1% penicillin-streptomycin. Normal mammary gland epithelial cell line MCF10A was cultured in DMEM/F12 (50:50) plus 5% horse serum, 0.1 μg/mL cholera toxin, 10 μg/mL insulin, 0.5 μg/mL hydrocortisone, and 20 ng/mL epidermal growth factor. To establish MDA-MB-468 cells that stably expressed each individual GFP-Hec1 deletion construct described above, cells were infected with retrovirus expressing GFP-Hec1 WT, GFP-Hec1 W395A and GFP-Hec1 WLK/AAA, and were selected with 2 μg/ml puromycin.

[2] = system: MB468; test: Cancer cell growth inhibition, MB468 (MDA-MB-468); assay type: cell-based; details: Homo sapiens, Table 1, MB468, read-out: MB468 IC50
[3] = system: cancer cell lines; test: Cancer cell growth inhibition; assay type: cell-based
[4] = system: Nek2; test: Nek2 protein level in treated HeLa cells, western blot; assay type: cell-based; details: co-treatment with INH41 or INH154
Experimental: INH-induced Nek2 degradation; INH-inhibition of Hec1 phosphorylation by Nek2. […] To evaluate whether INH treatment affected cell cycle profile or Nek2 mRNA level, we performed FACS and real-time PCR analysis.
Protein extraction and western blot analysis. The protein extractions and western blot analyses of Examples 4-6 were conducted as follows. Cell extracts were prepared and equal amounts of protein were separated by SDS-PAGE (10% w/v gel) followed by electrophoretic transfer to PVDF membranes (Millipore, Billerica, Mass.). After blocking with 5% w/v powdered non-fat milk, the membrane was incubated with different antibodies for overnight at 4° C. and treated for 1 hr with horseradish peroxidase-conjugated goat anti-mouse IgG and goat anti-rabbit IgG antibodies (GeneTex, Irvine, Calif.). ECL detection of the horseradish peroxidase reaction was performed according to the manufacturer's instructions (Millipore, Billerica, Mass.). Protein signal was measured on a LAS 4000 mini Imaging System (Fujifilm, Valhalla, N.Y.).

[5] = system: Hec1; test: Biotin-conjugated INH pull-down of Hec1 and Hec1 mutants; assay type: binding

| Compound | IC50 [1] | IC50 [2] | inhibition of cancer cell growth, IC50 (in words) [3] | effect on INH-induced degradation of Nek2 [4] | binding of Hec1 W395A and W395A/L399A/K400A mutants [5] |
| --- | --- | --- | --- | --- | --- |
| COc1cc(C)cc(C)c1-c1csc(NC(=O)c2ccncc2)n1 [INH56] | 1800 nM | 4500 nM | – | – | – |
| Cc1cc([N+](=O)[O-])cc(C)c1-c1csc(NC(=O)c2ccncc2)n1 [INH78, N-(4-(2,6-Dimethyl-4-nitrophenyl)thiazol-2-yl)isonicotinamide] | 630 nM | 1400 nM | sub-micromolar IC50 | – | – |
| Cc1cc(N)cc(C)c1-c1csc(NC(=O)c2ccncc2)n1 [INH79, N-(4-(4-amino-2,6-dimethylphenyl)thiazol-2-yl)isonicotinamide] | 2300 nM | 3200 nM | – | – | – |
| Cc1cc(F)cc(C)c1-c1csc(NC(=O)c2ccncc2)n1 [INH80, N-(4-(4-fluoro-2,6-dimethylphenyl)thiazol-2-yl)isonicotinamide] | 2000 nM | 4400 nM | – | – | – |
| COc1cncc(Oc2cc(C)c(-c3csc(NC(=O)c4ccncc4)n3)c(C)c2)n1 [INH81, N-(4-(4-((6-methoxypyrazin-2-yl)oxy)-2,6-dimethylphenyl)thiazol-2-yl)isonicotinamide] | 1400 nM | 400 nM | sub-micromolar IC50 | – | – |
| Cc1cc(NC(=O)C2CC2)cc(C)c1-c1csc(NC(=O)c2ccncc2)n1 [INH136, N-(4-(4-((cyclopropylcarbonyl)amino)-2,6-dimethylphenyl)thiazol-2-yl)isonicotinamide] | 1500 nM | 3400 nM | – | – | – |
| Cc1cc(NC(=O)CCC(=O)O)cc(C)c1-c1csc(NC(=O)c2ccncc2)n1 [INH146, 4-(4-(2-(isonicotinamido)thiazol-4-yl)-3,5-dimethylphenylamino)-4-oxobutanoic acid] | > 5000 nM | > 10000 nM | – | – | – |
| Cc1cc(NCC(=O)O)cc(C)c1-c1csc(NC(=O)c2ccncc2)n1 [INH156, N-(4-(2-(Isonicotinamido)thiazol-4-yl)-3,5-dimethylphenyl)-glycine] | 2400 nM | 9400 nM | – | – | – |
| Cc1cc(N2C(=O)CCC2=O)cc(C)c1-c1csc(NC(=O)c2ccncc2)n1 [INH160, N-(4-(4-(2,5-dioxopyrrolidin-1-yl)-2,6-dimethylphenyl)thiazol-2-yl)isonicotinamide] | 5000 nM | 3300 nM | – | – | – |
| Cc1cc(N2CCOCC2)cc(C)c1-c1csc(NC(=O)c2ccncc2)n1 [INH168] | 200 nM | 120 nM | sub-micromolar IC50 | – | – |
| Cc1cc(C#N)cc(C)c1-c1csc(NC(=O)c2ccncc2)n1 [INH174, N-(4-(4-Cyano-2,6-dimethylphenyl)thiazol-2-yl)isonicotinamide] | 600 nM | 500 nM | sub-micromolar IC50 | – | – |
| Cc1cc(O)cc(C)c1-c1csc(NC(=O)c2ccncc2)n1 [INH182, N-(4-(4-hydroxy-2,6-dimethylphenyl)thiazol-2-yl)isonicotinamide] | 3500 nM | 2000 nM | – | – | – |
| Cc1cc(N2CCN(C)CC2)cc(C)c1-c1csc(NC(=O)c2ccncc2)n1 [INH212, N-(4-(2,6-dimethyl-4-(4-methylpiperazin-1-yl)phenyl)thiazol-2-yl)isonicotinamide] | 2500 nM | 2400 nM | – | – | – |
| CC(C)C[C@@H](C=O)NC(=O)[C@H](CC(C)C)NC(=O)[C@H](CC(C)C)NC(=O)OCc1ccccc1 [MG132, reference compound] (Cbz-Leu-Leu-Leu-aldehyde) | – | – | – | prevented INH-induced degradation of Nek2 | – |
| Cc1cc(N2CCC(OCCOCCOCCOCCNC(=O)CCCC[C@@H]3SC[C@@H]4NC(=O)N[C@@H]43)CC2)cc(C)c1-c1csc(NC(=O)c2ccncc2)n1 [biotin-INH154, N-(4-(2,6-dimethyl-4-(4-((13-oxo-17-((3aS,4S,6aR)-2-oxohexahydro-1H-thieno [3,4-d]imidazol-4-yl)-3,6,9-trioxa-12-azaheptadecyl)oxy)piperidin-1-yl)phenyl)thiazol-2-yl)isonicotinamide] | – | – | – | – | neither mutant was able to bind |
